# Laboratory results taken from patent US20150181873A1, “HERBICIDE-RESISTANT SUNFLOWER PLANTS, POLYNUCLEOTIDES ENCODING HERBICIDE=RESISTANT ACETO HYDROXY ACID SYNTHASE LARGE SUBUNIT PROTEINS, AND METHODS OF USE” (NIDERA S.A., priority 2013, published 2015).
# “And” between values parts separate entries of the source, which are not always exact repeats. Equal values may be shown once.
# Test system: sunflower genotypes carrying the A122T mutation event
# Experiment: Greenhouse imazapir dose response, A122T genotypes together
# Type: in vivo, Helianthus annuus
# Conditions: 14 DAT; for root dry weight, Dif with control / biomass accumulation, Dif with control / plant height, Dif with Control: A122T mean; for Phytotoxicity Index, Dif A205V − A122T / biomass accumulation, Dif A122T − A205V / plant height, Dif A122T − A205V / root dry weight, Dif A122T − A205V: difference of group means; for biomass accumulation, % of untreated, Mean / plant height, % of untreated, Mean / root dry weight, % of untreated, Mean: six A122T genotypes; for Phytotoxicity Index, Mean: three A122T genotypes
# Method: A greenhouse study was conducted to quantify and contrast the imazapir sensivity of the mutants A122T and A205V in different genetic backgrounds at the whole plant level in sunflower. Seeds of the different sunflower lines that were used in this study were obtained under field conditions.
# Seeds were sown in Petri dishes and, after germination, plantlets were transplanted to pots of 10 cm of diameter in a potting media consisting of equal parts of vermiculite, soil and sand. Plants were grown in a greenhouse under natural light conditions supplemented with 400 W sodium halide lamps to provide a 16 hrs daylength. Day/night temperatures were 25 and 20° C., respectively. At the V2 stage 10 plants of each genotype were randomly assigned to each treatment consisting of […] imazapir doses (0, 40, 80, 160, 240, 320, 400 and 480 g ai/ha), and a zero-time biomass determination. Experiment was arranged as a randomized block design with a full factorial (sunflower line×treatment) arrangement of treatments and 10 replications.
# On the day of herbicide application ten plants of each genotype were cut at the cotyledonal node and dried at 60° C. for 48 hrs zero-time for dried weight determination. […] Height was determined as the distance between the cotyledonal node and the apex of each plant. For root biomass determination, each plant was taken from the pot and the potting media was washed out from the roots. Above ground biomass data from each line were converted to biomass accumulation after application by subtracting the appropriate average zero-time biomass from each sample. Dry biomass data were converted to percentages of the untreated control plants within each line to allow direct comparisons between groups.
smiles,measurement,setting,value
"CC(C)C1(C)N=C(c2ncccc2C(=O)O)NC1=O (stereo not drawn) [Imazapyr, imazapyr]","root dry weight, Dif with control",4x (320 g ai/ha),18.6%
same,"biomass accumulation, Dif with control",5x (400 g ai/ha),20.7%
same,"plant height, Dif with Control",5x (400 g ai/ha),10.2%
same,"root dry weight, Dif with control",5x (400 g ai/ha),21.3%
same,"plant height, Dif with Control",6x (480 g ai/ha),15.8%
same,"root dry weight, Dif with control",6x (480 g ai/ha),38.3%
same,"biomass accumulation, Dif with control","6x (480 g ai/ha), listed as imazapir",25% and 25.4%
same,"Phytotoxicity Index, Dif A205V − A122T",0.5x (40 g ai/ha),−0.29
same,"biomass accumulation, Dif A122T − A205V",0.5x (40 g ai/ha),4.3%
same,"plant height, Dif A122T − A205V",0.5x (40 g ai/ha),4.9%
same,"root dry weight, Dif A122T − A205V",0.5x (40 g ai/ha),12.7%
same,"Phytotoxicity Index, Dif A205V − A122T",1x (80 g ai/ha),−0.29
same,"biomass accumulation, Dif A122T − A205V",1x (80 g ai/ha),14.5%
same,"plant height, Dif A122T − A205V",1x (80 g ai/ha),9.4%
same,"root dry weight, Dif A122T − A205V",1x (80 g ai/ha),26.7%
same,"Phytotoxicity Index, Dif A205V − A122T",2x (160 g ai/ha),1.87
same,"biomass accumulation, Dif A122T − A205V",2x (160 g ai/ha),33.2%
same,"plant height, Dif A122T − A205V",2x (160 g ai/ha),28.0%
same,"root dry weight, Dif A122T − A205V",2x (160 g ai/ha),43.6%
same,"Phytotoxicity Index, Dif A205V − A122T",3x (240 g ai/ha),4.81
same,"biomass accumulation, Dif A122T − A205V",3x (240 g ai/ha),45.3%
same,"plant height, Dif A122T − A205V",3x (240 g ai/ha),45.3%
same,"root dry weight, Dif A122T − A205V",3x (240 g ai/ha),50.2%
same,"Phytotoxicity Index, Dif A205V − A122T",4x (320 g ai/ha),6.92
same,"biomass accumulation, Dif A122T − A205V",4x (320 g ai/ha),52.4%
same,"plant height, Dif A122T − A205V",4x (320 g ai/ha),59.9%
same,"root dry weight, Dif A122T − A205V",4x (320 g ai/ha),50.3%
same,"Phytotoxicity Index, Dif A205V − A122T",5x (400 g ai/ha),7.38
same,"biomass accumulation, Dif A122T − A205V",5x (400 g ai/ha),46.9%
same,"plant height, Dif A122T − A205V",5x (400 g ai/ha),57.8%
same,"root dry weight, Dif A122T − A205V",5x (400 g ai/ha),47.9%
same,"Phytotoxicity Index, Dif A205V − A122T",6x (480 g ai/ha),7.03
same,"biomass accumulation, Dif A122T − A205V",6x (480 g ai/ha),44.6%
same,"plant height, Dif A122T − A205V",6x (480 g ai/ha),54.0%
same,"root dry weight, Dif A122T − A205V",6x (480 g ai/ha),37.3%
same,"biomass accumulation, % of untreated, Mean",0.5x (40 g ai/ha),98.9%
same,"plant height, % of untreated, Mean",0.5x (40 g ai/ha),99.4%
same,"root dry weight, % of untreated, Mean",0.5x (40 g ai/ha),99.9%
same,"biomass accumulation, % of untreated, Mean",1x (80 g ai/ha),96.8%
same,"plant height, % of untreated, Mean",1x (80 g ai/ha),98.6%
same,"root dry weight, % of untreated, Mean",1x (80 g ai/ha),97.5%
same,"biomass accumulation, % of untreated, Mean",2x (160 g ai/ha),94.9%
same,"plant height, % of untreated, Mean",2x (160 g ai/ha),97.3%
same,"root dry weight, % of untreated, Mean",2x (160 g ai/ha),94.1%
same,"biomass accumulation, % of untreated, Mean",3x (240 g ai/ha),92.8%
same,"plant height, % of untreated, Mean",3x (240 g ai/ha),95.6%
same,"root dry weight, % of untreated, Mean",3x (240 g ai/ha),89.4%
same,"biomass accumulation, % of untreated, Mean",4x (320 g ai/ha),87.8%
same,"plant height, % of untreated, Mean",4x (320 g ai/ha),93.7%
same,"root dry weight, % of untreated, Mean",4x (320 g ai/ha),81.4%
same,"biomass accumulation, % of untreated, Mean",5x (400 g ai/ha),79.3%
same,"plant height, % of untreated, Mean",5x (400 g ai/ha),89.8%
same,"root dry weight, % of untreated, Mean",5x (400 g ai/ha),78.7%
same,"biomass accumulation, % of untreated, Mean",6x (480 g ai/ha),74.6%
same,"plant height, % of untreated, Mean",6x (480 g ai/ha),84.2%
same,"root dry weight, % of untreated, Mean",6x (480 g ai/ha),61.7%
same,"Phytotoxicity Index, Mean",0.5x (40 g ai/ha),0.3
same,"Phytotoxicity Index, Mean",1x (80 g ai/ha),0.3
same,"Phytotoxicity Index, Mean",2x (160 g ai/ha),0.3
same,"Phytotoxicity Index, Mean",3x (240 g ai/ha),0.3
same,"Phytotoxicity Index, Mean",4x (320 g ai/ha),0.5
same,"Phytotoxicity Index, Mean",5x (400 g ai/ha),0.8
same,"Phytotoxicity Index, Mean",6x (480 g ai/ha),1.2
